Assay results taken from PMC4281356, “Uptake of the antisecretory factor peptide AF-16 in rat blood and cerebrospinal fluid and effects on elevated intracranial pressure” (Acta Neurochirurgica, 2014).
Several values for one entry are separate records, joined by “and”; a condition that tells them apart may be missing. Equal entries are not always repeated. Residues, ends and D or L forms follow the SMILES beside them.

Assays:
[1] = AF-16 concentration in plasma after intranasal or i.v. administration (Bachem AF-16 Enzyme Immunoassay); format: in vivo, rat; conditions: for Concentration of AF-16 in plasma: experimental rats (cryogenic brain injury); for Concentration of AF-16 in plasma / level at 0.5 h: sample 30 min after dosing, enzyme immunoassay, mean ± SEM; for level at 0.5 h: male, Sprague-Dawley, rat, plasma, control (uninjured) rats
Procedure: (§1) The test protocol was approved by the Regional Animal Experiments Ethical Committee and performed in accordance with guidelines for animal experiments (EC Directive 86/609/EEC). Male Sprague–Dawley rats, 180 ± 20 g body weight (Nova-SCB, Sollentuna, Sweden) were used. The rats were allowed a week for general adaptation in their cages before any form of experimental procedure was performed. All rats had free access to water and pelleted food during the whole experimental period. The temperature and air ventilation in the animal quarters were monitored according to standard procedures.
(§2) The operation procedure started with general anaesthesia via inhalation of Isoflurane (4 % induction, 1.5–2 % maintenance in air), after which the anaesthetised rat was positioned on the abdomen on a heating pad. The body temperature was monitored via a rectal thermo-coupled probe, and a heated blanket was placed underneath the rat in order to keep the temperature at 37 °C. The head was shaved and the skin washed with 70 % alcohol, followed by a subcutaneous injection of Marcaine. A 3– to 4-cm-long midline incision was made through the skin and fascia on the skull vault. The skull bone was freed from adherent connective tissue and a copper rod (144 g) with a tip diameter of 4 mm was immersed in liquid nitrogen and then applied to the right parietal bone for 90 s. […] The resulting lesion volume was calculated after termination of the experiments (see below). Uninjured rats were used as controls.
(§3) Rats were anaesthetised with Isoflurane 24 h after the cryogenic brain injury. The rats were given a single dose of 25 μl of AF-16 (2,000 μg/ml in phosphate buffered saline, PBS) or ^14C-AF-16 in each nostril and were then placed on their backs to make sure the AF-16 solution was absorbed appropriately. After 5–8 min they had recovered from anaesthesia, were fully awake and moved freely in the cage. Control, injured rats received the same volume of vehicle (PBS) only. ICP recordings for statistical calculations were collected for a 20-min-long period, starting after the animals were fully awake and the ICP values were stable and back to pre-anaesthesia levels.
(§4) The collection of blood and CSF was done in a separate set of experiments. ^14C-Labelled or unlabelled AF-16 was given by intranasal (see above) or i.v. administration via the penis vein (25 μl in a volume of 0.5 ml). For measurement of blood concentration of AF-16 the heart was punctured from the right thoracic cavity with an O.D. 1.22/60 mm injection needle. When 10–12 ml of blood had been collected, the thorax was opened and the rats were terminated by removing the heart. Immediately after termination, the rats were placed on the abdomen. For measurement of CSF levels of AF-16 the dura over cisterna magna was micro-surgically exposed by dissecting the neck muscles laterally, a procedure which uncovers the midline. The dura was subsequently punctured by a Neoflon i.v. cannula, outer diameter 0.6 mm, length 19 mm. After removing the needle from the cannula, 50–100 μl of CSF could be aspired without being contaminated with blood.
A Bachem AF-16 Enzyme Immunoassay kit (item S-1403) was used. Heparin-treated blood samples were mixed with an equal volume of Alsevers citrate solution (glucose, 0.1 M, sodium citrate 2-hydrate, 0.03 M, sodium chloride, 0.07 M). The blood samples were stored frozen for up to 1 month at −20 °C. The laboratory procedure followed Protocol III in the Bachem kit manual, but some critical points should be emphasised. The standard AF-16 was dissolved and diluted in normal blood plasma; the standards S1-S6 (0.2–200 ng/ml, corresponding to 0.114–114 nM) and normal plasma S0 were distributed into smaller aliquots (e.g. 200 μl) and frozen at −20 °C until use. The standard is not stable in buffered saline at these concentrations. […]

[2] = AF-16 concentration in CSF after intranasal or i.v. administration (estimated from radioactivity of 14C-AF-16); format: in vivo, rat; conditions: for Concentration of AF-16 in CSF: estimated from 14C radioactivity, mean ± SEM
Procedure: as §1, §2, §3, §4
A Bachem AF-16 Enzyme Immunoassay kit (item S-1403) was used. Heparin-treated blood samples were mixed with an equal volume of Alsevers citrate solution (glucose, 0.1 M, sodium citrate 2-hydrate, 0.03 M, sodium chloride, 0.07 M). The blood samples were stored frozen for up to 1 month at −20 °C. The laboratory procedure followed Protocol III in the Bachem kit manual, but some critical points should be emphasised. […]

[3] = Side effects of AF-16 treatment in animals; format: in vivo; conditions: experimental conditions in animals
[4] = Autoradiography of 14C-AF-16 distribution in the brain after intranasal administration; format: in vivo, rat; conditions: control uninjured rats (n = 10), one intranasal dose, 30 min, 10 μm cryosections, X-ray film
Procedure: The distribution of ^14C-AF-16 in the brain after intranasal administration was investigated in a separate set of experiments. Control, uninjured rats (n = 10) received one intranasal dose of ^14C-AF-16. Thirty minutes later the rats were terminated and the brains were dissected out as described above. Frontal slices were cut, about 3 mm thick, immersed in 10 % sucrose in PBS overnight and then frozen in liquid nitrogen. Cryosections, cut at 10 μm, were prepared, air dried and exposed to Biomax AR autoradiography film (Kodak).

Row | Compound | Concentration of AF-16 in plasma relative to CSF ([1]; control and injured rats, 30 min after intranasal or i.v. administration) | Concentration of AF-16 in plasma ([1]; i.v. via penis vein (25 μl in 0.5 ml), n = 7) [ng/mL] | Concentration of AF-16 in plasma ([1]; intranasal (25 μl of 2,000 μg/ml in PBS in each nostril), n = 9) [ng/mL] | level at 0.5 h ([1]; inhaled or intranasal, 100 ug per rat, intranasal (25 μl of 2,000 μg/ml in PBS in each nostril), n = 9) [ng/mL] | level at 0.5 h ([1]; iv, 25 ul in a volume of 0.5 ml, i.v. via penis vein (25 μl in 0.5 ml), n = 7) [ng/mL] | Concentration of AF-16 in plasma relative to CSF ([1]; normal rats, intranasal 0.3 μmol/kg in 25 μl, 15 and 30 min after deposition) | Change of plasma level between 15 and 30 min ([1]; normal rats, intranasal 0.3 μmol/kg, p < 0.03) | Concentration of AF-16 in CSF ([2]; control (uninjured) rats, i.v., CSF from cisterna magna 30 min after dosing, n = 6) [ng/mL] | Concentration of AF-16 in CSF ([2]; control (uninjured) rats, intranasal, CSF 30 min after dosing, n = 9) | Concentration of AF-16 in CSF ([2]; experimental rats (cryogenic brain injury), i.v., CSF from cisterna magna 30 min after dosing, n = 7) [ng/mL] | Concentration of AF-16 in CSF ([2]; experimental rats (cryogenic brain injury), intranasal, CSF 30 min after dosing, n = 9, p = 0.01 vs control) | Decrease of AF-16 in CSF between 15 and 30 min ([2]; normal rats, intranasal 0.3 μmol/kg) | Side effects of treatment [3] | Distribution in the brain by autoradiography [4]
1 | CC(C)C[C@H](NC(=O)CNC(=O)[C@@H](NC(=O)[C@H](CC(N)=O)NC(=O)[C@H](CC(N)=O)NC(=O)[C@H](CCC(=O)O)NC(=O)[C@@H]1CCCN1C(=O)[C@H](CC(N)=O)NC(=O)[C@H](CO)NC(=O)[C@H](CCCNC(=N)N)NC(=O)[C@@H](NC(=O)[C@H](CCCCN)NC(=O)[C@H](CO)NC(=O)[C@H](Cc1c[nH]cn1)NC(=O)[C@H](CS)NC(=O)[C@@H](N)C(C)C)[C@@H](C)O)C(C)C)C(=O)O [AF-16] (H-VCHSKTRSNPENNVGL-OH) | about ten-times higher in plasma than in CSF | 14.5 ± 0.9 | 8.7 ± 0.5 | 7.8 ± 0.7 | 14.7 ± 0.6 | about ten-times higher in plasma than in CSF | decreased significantly | 1.1 ± 0 | 0.6 ng/mL and 0.6 ± 0.1 ng/mL | 1.1 ± 0.1 | 1.3 ng/mL and 1.3 ± 0.2 ng/mL | not statistically significant | No side effects | 
2 | VCHSKTRSNPENNVGL [^14C-AF-16] |  |  |  |  |  |  |  |  |  |  |  |  |  | detected in the brain ventricles/choroid plexus
